How the values were obtained:
Format in all cases: in vivo
[1] = tested on: barnyardgrass (Echinochloa crus-galli); assay: Test A pre-/postemergence: barnyardgrass; settings: for Barnyardgrass plant response rating: Postemergence; for Plant response rating, Barnyardgrass: Preemergence
Procedure, shortened: (§1)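 Soil medium was loam blended with sand; treatments pre- and postemergence were applied concurrently, postemergence at one- to two-leaf stage. Approximately ten days in greenhouse preceded visual comparison with untreated controls, scored 0 (no effect) to 100 (complete control).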

[2] = tested on: crabgrass, large (large crabgrass, Digitaria sanguinalis); assay: Test A pre-/postemergence: crabgrass, large; settings: for Crabgrass, Large plant response rating: Postemergence; for Plant response rating, Crabgrass, Large: Preemergence
Procedure, shortened: as §1

[3] = tested on: foxtail, giant (giant foxtail, Setaria faberii); assay: Test A pre-/postemergence: foxtail, giant; settings: for Foxtail, Giant plant response rating: Postemergence; for Plant response rating, Foxtail, Giant: Preemergence
Procedure, shortened: as §1

[4] = tested on: morningglory (Ipomoea spp.); assay: Test A pre-/postemergence: morningglory; settings: for Morningglory plant response rating: Postemergence; for Plant response rating, Morningglory: Preemergence
Procedure, shortened: as §1

[5] = tested on: pigweed (Amaranthus retroflexus); assay: Test A pre-/postemergence: pigweed; settings: for Pigweed plant response rating: Postemergence; for Plant response rating, Pigweed: Preemergence
Procedure, shortened: as §1

[6] = tested on: velvetleaf (Abutilon theophrasti); assay: Test A pre-/postemergence: velvetleaf; settings: for Velvetleaf plant response rating: Postemergence; for Plant response rating, Velvetleaf: Preemergence
Procedure, shortened: as §1

[7] = tested on: wheat (Triticum aestivum); assay: Test A pre-/postemergence: wheat; settings: for Wheat plant response rating: Postemergence; for Plant response rating, Wheat: Preemergence
Procedure, shortened: as §1

corn (Zea mays) = assay: Test A pre-/postemergence: corn; settings: for Corn plant response rating: Postemergence; for Plant response rating, Corn: Preemergence
Procedure, shortened: as §1

rice (Oryza sativa) = assay: Test C flooded paddy test: rice; settings: scale 0 to 100 (0 no effect, 100 complete control)
Procedure, shortened: (§2)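 Visual ratings from 0 (no effect) to 100 (complete control), made against untreated controls 13 to 15 days after treatment, express plant response. Compounds went directly into paddy water over 2-leaf stage plants in pots flooded to 3 cm.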

[8] = tested on: sedge, umbrella (small-flower umbrella sedge, Cyperus difformis); assay: Test C flooded paddy test: sedge, umbrella; settings: scale 0 to 100 (0 no effect, 100 complete control)
Procedure, shortened: as §2

[9] = tested on: ducksalad (Heteranthera limosa); assay: Test C flooded paddy test: ducksalad; settings: scale 0 to 100 (0 no effect, 100 complete control)
Procedure, shortened: as §2

[10] = tested on: barnyardgrass (Echinochloa crus-galli); assay: Test C flooded paddy test: barnyardgrass; settings: scale 0 to 100 (0 no effect, 100 complete control)
Procedure, shortened: as §2

[11] = 125 g ai/ha, 0 to 100 scale, 0 is no effect, 100 is complete control
[12] = 500 g ai/ha, visual rating on 0 to 100 scale (0 no effect, 100 complete control), approximately ten days
[13] = 125 g ai/ha, 0 to 100 scale (0 no effect, 100 complete control)
[14] = 500 g ai/ha, 0 to 100 scale, 0 is no effect, 100 is complete control
[15] = Flood (flooded paddy test), 62 g ai/ha, visual rating after 13 to 15 days
[16] = Flood (flooded paddy test), 125 g ai/ha, visual rating after 13 to 15 days
[17] = Flood (flooded paddy test), 250 g ai/ha, visual rating after 13 to 15 days

Cc1nn(-c2ccc([N+](=O)[O-])cc2)nc1C(=O)c1cccc(C(F)(F)F)c1 [Compound 41]
Barnyardgrass plant response rating [1, 11]: 10 | Barnyardgrass plant response rating [1, 12]: 10 | Plant response rating, Barnyardgrass [1, 13]: 10 | Plant response rating, Barnyardgrass [1, 14]: 20 | Crabgrass, Large plant response rating [2, 11]: 10 | Crabgrass, Large plant response rating [2, 12]: 30 | Plant response rating, Crabgrass, Large [2, 13]: 20 | Plant response rating, Crabgrass, Large [2, 14]: 70 | Foxtail, Giant plant response rating [3, 11]: 10 | Foxtail, Giant plant response rating [3, 12]: 20 | Plant response rating, Foxtail, Giant [3, 13]: 40 | Plant response rating, Foxtail, Giant [3, 14]: 70 | Morningglory plant response rating [4, 11]: 10 | Morningglory plant response rating [4, 12]: 10 | Plant response rating, Morningglory [4, 13]: 0 | Plant response rating, Morningglory [4, 14]: 10 | Pigweed plant response rating [5, 11]: 30 | Pigweed plant response rating [5, 12]: 80 | Plant response rating, Pigweed [5, 13]: 20 | Plant response rating, Pigweed [5, 14]: 50 | Velvetleaf plant response rating [6, 11]: 10 | Velvetleaf plant response rating [6, 12]: 50 | Plant response rating, Velvetleaf [6, 13]: 10 | Plant response rating, Velvetleaf [6, 14]: 10 | Wheat plant response rating [7, 11]: 0 | Wheat plant response rating [7, 12]: 10 | Plant response rating, Wheat [7, 13]: 0 | Plant response rating, Wheat [7, 14]: 0 | Corn plant response rating (corn (Zea mays); [11]): 10 | Corn plant response rating (corn (Zea mays); [12]): 20 | Plant response rating, Corn (corn (Zea mays); [13]): 0 | Plant response rating, Corn (corn (Zea mays); [14]): 0 | Plant response rating, Rice (rice (Oryza sativa); [15]): 0 | Plant response rating, Rice (rice (Oryza sativa); [16]): 0 | Plant response rating, Rice (rice (Oryza sativa); [17]): 0 | Plant response rating, Rice (rice (Oryza sativa); Flood, 31 g ai/ha): 0 | Plant response rating, Sedge, Umbrella [8, 15]: 0 | Plant response rating, Sedge, Umbrella [8, 16]: 0 | Plant response rating, Sedge, Umbrella [8, 17]: 0 | Plant response rating, Sedge, Umbrella ([8]; Flood, 31 g ai/ha): 0 | Plant response rating, Ducksalad [9, 15]: 0 | Plant response rating, Ducksalad [9, 16]: 0 | Plant response rating, Ducksalad [9, 17]: 0 | Plant response rating, Ducksalad ([9]; Flood, 31 g ai/ha): 0 | Plant response rating, Barnyardgrass [10, 15]: 0 | Plant response rating, Barnyardgrass [10, 16]: 0 | Plant response rating, Barnyardgrass [10, 17]: 0 | Plant response rating, Barnyardgrass ([10]; Flood, 31 g ai/ha): 0

COc1nn(-c2ccc(C(F)(F)F)cc2)nc1Cc1cccc(C(F)(F)F)c1 [Compound 29]
Barnyardgrass plant response rating [1, 11]: 20 | Barnyardgrass plant response rating [1, 12]: 40 | Plant response rating, Barnyardgrass [1, 13]: 10 | Plant response rating, Barnyardgrass [1, 14]: 50 | Crabgrass, Large plant response rating [2, 11]: 90 | Crabgrass, Large plant response rating [2, 12]: 90 | Plant response rating, Crabgrass, Large [2, 13]: 90 | Plant response rating, Crabgrass, Large [2, 14]: 100 | Foxtail, Giant plant response rating [3, 11]: 60 | Foxtail, Giant plant response rating [3, 12]: 90 | Plant response rating, Foxtail, Giant [3, 13]: 80 | Plant response rating, Foxtail, Giant [3, 14]: 100 | Morningglory plant response rating [4, 11]: 80 | Morningglory plant response rating [4, 12]: 100 | Plant response rating, Morningglory [4, 13]: 0 | Plant response rating, Morningglory [4, 14]: 10 | Pigweed plant response rating [5, 11]: 100 | Pigweed plant response rating [5, 12]: 100 | Plant response rating, Pigweed [5, 13]: 50 | Plant response rating, Pigweed [5, 14]: 90 | Velvetleaf plant response rating [6, 11]: 60 | Velvetleaf plant response rating [6, 12]: 80 | Plant response rating, Velvetleaf [6, 13]: 0 | Plant response rating, Velvetleaf [6, 14]: 50 | Wheat plant response rating [7, 11]: 0 | Wheat plant response rating [7, 12]: 30 | Plant response rating, Wheat [7, 13]: 0 | Plant response rating, Wheat [7, 14]: 0 | Corn plant response rating (corn (Zea mays); [11]): 20 | Corn plant response rating (corn (Zea mays); [12]): 20 | Plant response rating, Corn (corn (Zea mays); [13]): 0 | Plant response rating, Corn (corn (Zea mays); [14]): 0 | Plant response rating, Rice (rice (Oryza sativa); [15]): 0 | Plant response rating, Rice (rice (Oryza sativa); [16]): 0 | Plant response rating, Rice (rice (Oryza sativa); [17]): 0 | Plant response rating, Rice (rice (Oryza sativa); Flood, 31 g ai/ha): 0 | Plant response rating, Sedge, Umbrella [8, 15]: 60 | Plant response rating, Sedge, Umbrella [8, 16]: 70 | Plant response rating, Sedge, Umbrella [8, 17]: 75 | Plant response rating, Sedge, Umbrella ([8]; Flood, 31 g ai/ha): 50 | Plant response rating, Ducksalad [9, 15]: 0 | Plant response rating, Ducksalad [9, 16]: 0 | Plant response rating, Ducksalad [9, 17]: 0 | Plant response rating, Ducksalad ([9]; Flood, 31 g ai/ha): 0 | Plant response rating, Barnyardgrass [10, 15]: 0 | Plant response rating, Barnyardgrass [10, 16]: 0 | Plant response rating, Barnyardgrass [10, 17]: 20 | Plant response rating, Barnyardgrass ([10]; Flood, 31 g ai/ha): 0

Cc1nn(-c2ccc(C(F)(F)F)cn2)nc1Cn1ccc(C(F)(F)F)n1 [Compound 7]
Barnyardgrass plant response rating [1, 11]: 30 | Barnyardgrass plant response rating [1, 12]: 90 | Plant response rating, Barnyardgrass [1, 13]: 40 | Plant response rating, Barnyardgrass [1, 14]: 100 | Crabgrass, Large plant response rating [2, 11]: 70 | Crabgrass, Large plant response rating [2, 12]: 90 | Plant response rating, Crabgrass, Large [2, 13]: 100 | Plant response rating, Crabgrass, Large [2, 14]: 100 | Foxtail, Giant plant response rating [3, 11]: 50 | Foxtail, Giant plant response rating [3, 12]: 90 | Plant response rating, Foxtail, Giant [3, 13]: 90 | Plant response rating, Foxtail, Giant [3, 14]: 100 | Morningglory plant response rating [4, 11]: 90 | Morningglory plant response rating [4, 12]: 90 | Plant response rating, Morningglory [4, 13]: 30 | Plant response rating, Morningglory [4, 14]: 80 | Pigweed plant response rating [5, 11]: 100 | Pigweed plant response rating [5, 12]: 100 | Plant response rating, Pigweed [5, 13]: 100 | Plant response rating, Pigweed [5, 14]: 100 | Velvetleaf plant response rating [6, 11]: 30 | Velvetleaf plant response rating [6, 12]: 70 | Plant response rating, Velvetleaf [6, 13]: 30 | Plant response rating, Velvetleaf [6, 14]: 60 | Wheat plant response rating [7, 11]: 0 | Wheat plant response rating [7, 12]: 20 | Plant response rating, Wheat [7, 13]: 0 | Plant response rating, Wheat [7, 14]: 0 | Corn plant response rating (corn (Zea mays); [11]): 10 | Corn plant response rating (corn (Zea mays); [12]): 50 | Plant response rating, Corn (corn (Zea mays); [13]): 0 | Plant response rating, Corn (corn (Zea mays); [14]): 30 | Plant response rating, Rice (rice (Oryza sativa); [15]): 0 | Plant response rating, Rice (rice (Oryza sativa); [16]): 0 | Plant response rating, Rice (rice (Oryza sativa); [17]): 15 | Plant response rating, Rice (rice (Oryza sativa); Flood, 31 g ai/ha): 0 | Plant response rating, Sedge, Umbrella [8, 15]: 40 | Plant response rating, Sedge, Umbrella [8, 16]: 50 | Plant response rating, Sedge, Umbrella [8, 17]: 85 | Plant response rating, Sedge, Umbrella ([8]; Flood, 31 g ai/ha): 30 | Plant response rating, Ducksalad [9, 15]: 0 | Plant response rating, Ducksalad [9, 16]: 30 | Plant response rating, Ducksalad [9, 17]: 70 | Plant response rating, Ducksalad ([9]; Flood, 31 g ai/ha): 0 | Plant response rating, Barnyardgrass [10, 15]: 0 | Plant response rating, Barnyardgrass [10, 16]: 0 | Plant response rating, Barnyardgrass [10, 17]: 20 | Plant response rating, Barnyardgrass ([10]; Flood, 31 g ai/ha): 0
